The source of these data is patent publication US9938272B2, “Hydrazine compound as blood coagulation factor Xa inhibitor” (NORTH CHINA PHARMACEUTICAL COMPANY., LTD., priority 2014, dated 2018).

For orientation: Ki means the equilibrium dissociation constant of an inhibitor or competing ligand from its target.

The conditions of data set [1]: terminal phase; cited from earlier work.
For data set [2] the following is noted: cited from earlier work.
The next data set addresses rat Factor Xa (Rattus norvegicus (Rat), UniProt Q63207). As to the kind of experiment: Rat factor Xa chromogenic assay. The note with it: substrate S-2222, read-out: rfXa Ki. The format is biochemical.
In the next data set the target is prothrombinase (Homo sapiens (Human), UniProt P00742). The experiment in a line: Prothrombinase assay (thrombin generation). Conditions: human factor Xa with human platelets, prothrombin, substrate S-2238. The format is biochemical.
Sequence of prothrombinase (P00742 235-488): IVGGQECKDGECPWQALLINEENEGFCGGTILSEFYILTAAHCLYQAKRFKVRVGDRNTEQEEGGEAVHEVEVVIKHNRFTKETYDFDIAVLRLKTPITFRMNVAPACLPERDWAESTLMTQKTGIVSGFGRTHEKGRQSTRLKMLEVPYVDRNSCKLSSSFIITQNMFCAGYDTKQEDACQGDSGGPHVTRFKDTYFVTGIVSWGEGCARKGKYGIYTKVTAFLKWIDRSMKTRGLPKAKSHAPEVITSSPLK
Sequence of prothrombinase (P00742 41-179): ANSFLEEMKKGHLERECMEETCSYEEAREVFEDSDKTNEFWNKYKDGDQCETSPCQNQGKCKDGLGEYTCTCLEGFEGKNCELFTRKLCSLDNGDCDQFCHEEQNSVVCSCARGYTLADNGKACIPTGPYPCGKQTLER
Sequence of prothrombinase (P12259 29-737 partner): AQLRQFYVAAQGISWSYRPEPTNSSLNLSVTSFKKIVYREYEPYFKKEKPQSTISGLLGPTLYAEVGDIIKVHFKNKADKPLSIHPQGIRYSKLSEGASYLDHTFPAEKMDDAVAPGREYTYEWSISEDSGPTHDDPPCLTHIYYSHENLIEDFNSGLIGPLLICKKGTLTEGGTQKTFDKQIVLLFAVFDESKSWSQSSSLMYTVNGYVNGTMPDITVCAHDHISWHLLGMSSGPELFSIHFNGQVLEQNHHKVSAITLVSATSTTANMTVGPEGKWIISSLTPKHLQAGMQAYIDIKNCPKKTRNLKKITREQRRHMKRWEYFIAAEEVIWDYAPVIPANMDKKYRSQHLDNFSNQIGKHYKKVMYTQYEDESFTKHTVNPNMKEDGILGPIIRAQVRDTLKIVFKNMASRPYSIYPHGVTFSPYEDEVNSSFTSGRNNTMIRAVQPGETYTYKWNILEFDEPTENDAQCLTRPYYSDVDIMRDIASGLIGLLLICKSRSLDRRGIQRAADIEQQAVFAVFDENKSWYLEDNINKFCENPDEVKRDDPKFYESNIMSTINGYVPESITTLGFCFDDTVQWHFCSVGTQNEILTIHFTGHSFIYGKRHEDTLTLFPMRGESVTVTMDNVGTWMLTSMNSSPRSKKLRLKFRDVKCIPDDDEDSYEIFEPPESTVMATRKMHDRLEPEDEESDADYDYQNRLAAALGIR
Sequence of prothrombinase (P12259 1574-2224 partner): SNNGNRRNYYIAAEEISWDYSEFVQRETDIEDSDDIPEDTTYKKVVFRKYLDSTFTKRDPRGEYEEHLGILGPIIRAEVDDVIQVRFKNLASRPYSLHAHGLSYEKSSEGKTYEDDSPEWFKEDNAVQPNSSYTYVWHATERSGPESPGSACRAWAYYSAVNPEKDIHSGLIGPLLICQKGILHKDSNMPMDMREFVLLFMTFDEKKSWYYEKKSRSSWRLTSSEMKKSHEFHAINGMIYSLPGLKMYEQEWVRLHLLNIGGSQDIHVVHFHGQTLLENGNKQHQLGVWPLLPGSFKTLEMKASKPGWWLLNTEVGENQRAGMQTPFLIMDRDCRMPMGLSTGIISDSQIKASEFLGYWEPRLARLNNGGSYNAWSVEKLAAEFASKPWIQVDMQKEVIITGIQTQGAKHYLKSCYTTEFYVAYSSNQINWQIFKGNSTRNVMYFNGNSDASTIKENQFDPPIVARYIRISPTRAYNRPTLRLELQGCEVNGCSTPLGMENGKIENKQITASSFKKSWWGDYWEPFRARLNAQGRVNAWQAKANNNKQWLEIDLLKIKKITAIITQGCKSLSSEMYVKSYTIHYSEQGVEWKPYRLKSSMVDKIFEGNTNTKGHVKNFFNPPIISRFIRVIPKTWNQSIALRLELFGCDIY
For another data set, the target named is human trypsin (Homo sapiens, UniProt P07477). As to the kind of experiment: Human trypsin assay. Format: biochemical. The note with it: substrate S-2222.
The target of another data set is human Factor Xa (Homo sapiens (Human), UniProt P00742). As to the kind of experiment: Human factor Xa chromogenic assay. The note with it: substrate S-2222, read-out: hfXa Ki. The format is biochemical.
Sequence of human Factor Xa (P00742 235-488): as the sequence (P00742 235-488) above
Sequence of human Factor Xa (P00742 41-179): as the sequence (P00742 41-179) above
The next data set has as its target human thrombin (Homo sapiens (Human), UniProt P00734). As to the kind of experiment: Human thrombin assay. Format: biochemical. The note with it: substrate S-2238.

Sequence of rat Factor Xa (Q63207 232-482): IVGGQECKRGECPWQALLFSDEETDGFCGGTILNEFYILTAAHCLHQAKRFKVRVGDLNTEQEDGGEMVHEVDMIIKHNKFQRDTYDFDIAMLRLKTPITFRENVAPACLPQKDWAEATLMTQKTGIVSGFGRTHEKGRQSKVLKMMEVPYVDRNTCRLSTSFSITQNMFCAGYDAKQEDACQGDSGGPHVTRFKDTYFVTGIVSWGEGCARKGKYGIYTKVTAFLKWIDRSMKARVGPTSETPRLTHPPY
Sequence of rat Factor Xa (Q63207 41-180): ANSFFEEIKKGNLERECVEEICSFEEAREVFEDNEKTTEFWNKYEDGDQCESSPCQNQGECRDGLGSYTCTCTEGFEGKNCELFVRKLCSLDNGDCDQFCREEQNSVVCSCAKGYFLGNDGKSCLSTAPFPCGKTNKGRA

As for `COc1ccc(-n2nc(C(N)=O)c3c2C(=O)N(c2ccc(N4CCCCC4=O)cc2)CC3)cc1` [Apixaban, apixaban], the “mean elimination t½” value in data set [1] was 8 to 15 h.
Regarding `O=C(NC[C@H]1CN(c2ccc(N3CCOCC3=O)cc2)C(=O)O1)c1ccc(Cl)s1` [rivaroxaban], in data set [2], the water solubility result is given as “limited”.
Consider `COc1ccc(-n2nc(C(F)(F)F)c3c2C(=O)N(C2CCN(N4CCCC4=O)CC2)CC3)cc1` [Example 3, 1-(4-Methoxyphenyl)-6-(1-(2-oxopyrrolidin-1-yl)piperidin-4-yl)-3-(trifluoromethyl)-5,6-dihydro-1H-pyrazolo[3,4-c]pyridin-7(4H)-one], for which the Ki was not above 10 nM on rat Factor Xa; not above 10 nM at prothrombinase; not below 1000 nM at human trypsin; not above 10 nM at human Factor Xa; not below 1000 nM on human thrombin.
In the case of `COc1ccc(-n2nc(C(N)=O)c3c2C(=O)N(C2CCN(N4CCCCC4=O)CC2)CC3)cc1` [Example 4, 1-(4-Methoxyphenyl)-7-oxo-6-(2′-oxo-[1,1′-bipiperidin]-4-yl)-4,5,6,7-tetrahydro-1H-pyrazolo[3,4-c]pyridine-3-carboxamide], the Ki at rat Factor Xa is 10 to 50 nM; at prothrombinase, not above 10 nM; at human trypsin it was not below 1000 nM; at human Factor Xa it was not above 10 nM; on human thrombin, not below 1000 nM.
As to `NC(=O)c1cccc(-n2nc(C(F)(F)F)c3c2C(=O)N(C2CCN(N4CCOCC4=O)CC2)CC3)c1` [Example 31, 3-(7-Oxo-6-(1-(3-oxomorpholino)piperidin-4-yl)-3-(trifluoromethyl)-4,5,6,7-tetrahydro-1H-pyrazolo[3,4-c]pyridin-1-yl)benzamide], the inhibition constant Ki is 10 to 50 nM on rat Factor Xa; 10 to 50 nM at prothrombinase; not below 1000 nM at human trypsin; not above 10 nM at human Factor Xa; not below 1000 nM on human thrombin.
Take `O=C1c2c(c(C(F)(F)F)nn2-c2ccc(OC(F)F)cc2)CCN1C1CCN(N2CCOCC2=O)CC1` [Example 23, 4-(4-(1-(4-(Difluoromethoxy)phenyl)-7-oxo-3-(trifluoromethyl)-4,5-dihydro-1H-pyrazolo[3,4-c]pyridin-6(7H)-yl)piperidin-1-yl)morpholin-3-one]: the Ki is 10 to 50 nM on rat Factor Xa; not above 10 nM on prothrombinase; not below 1000 nM on human trypsin; not above 10 nM on human Factor Xa; not below 1000 nM at human thrombin.
For `COc1ccc(-n2nc(C(F)(F)F)c3c2C(=O)N(C2CCN(N4CCCCC4=O)CC2)CC3)cc1` [Example 2, 1-(4-Methoxyphenyl)-6-(2′-oxo-[1,1′-bipiperidin]-4-yl)-3-(trifluoromethyl)-5,6-dihydro-1H-pyrazolo[3,4-c]pyridin-7(4H)-one], the Ki at rat Factor Xa was not above 10 nM; at prothrombinase, not above 10 nM; at human trypsin it was not below 1000 nM; on human Factor Xa it was not above 10 nM; at human thrombin it was not below 1000 nM.
With `COc1ccc(-n2nc(/C(N)=N\C#N)c3c2C(=O)N(C2CCN(N4CCCCC4=O)CC2)CC3)cc1` [Example 6, N′-Cyano-1-(4-methoxyphenyl)-7-oxo-6-(2′-oxo-[1,1′-bipiperidin]-4-yl)-4,5,6,7-tetrahydro-1H-pyrazolo[3,4-c]pyridine-3-carboximidamide], the Ki was 10 to 50 nM on rat Factor Xa; not above 10 nM at prothrombinase; not below 1000 nM at human trypsin; not above 10 nM on human Factor Xa; not below 1000 nM on human thrombin.
Take `COc1ccc(-n2nc(C(N)=O)c3c2C(=O)N(C2CCN(N4CCOCC4=O)CC2)CC3)cc1` [Example 7, 1-(4-Methoxyphenyl)-7-oxo-6-(1-(3-oxomorpholino)piperidin-4-yl)-4,5,6,7-tetrahydro-1H-pyrazolo[3,4-c]pyridine-3-carboxamide]: the Ki on rat Factor Xa was 10 to 50 nM; on prothrombinase, not above 10 nM; at human trypsin, not below 1000 nM; on human Factor Xa, not above 10 nM; at human thrombin, not below 1000 nM.
Turning to `COc1ccc(-n2nc(C(N)=O)c3c2C(=O)N(C2CCN(C4CCNC4=O)CC2)CC3)cc1` (single isomer, unassigned) [Example 8b, 1-(4-Methoxyphenyl)-7-oxo-6-(1-(2-oxopyrrolidin-3-yl)piperidin-4-yl)-4,5,6,7-tetrahydro-1H-pyrazolo[3,4-c]pyridine-3-carboxamide], the Ki on rat Factor Xa was 10 to 50 nM; on prothrombinase, 10 to 50 nM; on human trypsin it was not below 1000 nM; on human Factor Xa, not above 10 nM; on human thrombin, not below 1000 nM.
On to `NC(=O)c1nn(-c2ccc(OC(F)F)cc2)c2c1CCN(C1CCN(N3CCOCC3=O)CC1)C2=O` [Example 11, 1-(4-(Difluoromethoxy)phenyl)-7-oxo-6-(1-(3-oxomorpholino)piperidin-4-yl)-4,5,6,7-tetra hydro-1H-pyrazolo[3,4-c]pyridine-3-carboxamide], for which the Ki on rat Factor Xa is 10 to 50 nM; on prothrombinase, not above 10 nM; on human trypsin, not below 1000 nM; at human Factor Xa, not above 10 nM; at human thrombin, not below 1000 nM.
